Reference: the OPERA property sets (Mansouri et al. 2018)
Converted amounts (≈) assume the structure as drawn.

SMILES	solubility (25 °C) [µM]	logP	further results
C=CCc1ccc(OC)c(OC)c1	2810 (≈ 500 µg/mL)		
COc1ccc(O)cc1	322000 (≈ 40000 µg/mL)		
CCC(C)=NO		0.63	
Oc1cccc(Br)c1	133000 (≈ 23000 µg/mL)		
C=Cc1ccc(CC)cc1		4.19	
S=C(NC1CCCCC1)NC1CCCCC1		3.69	
CC(C)CNCC(C)C	17000 (≈ 2200 µg/mL)		
CC(=O)Nc1ccccc1O	5820 (≈ 880 µg/mL)		
CCCCNCCCC	36400 (≈ 4700 µg/mL)		
C=Cc1cccc(CC)c1		4.11	
O=C(O)C1C(C(=O)O)C2(Cl)C(Cl)=C(Cl)C1(Cl)C2(Cl)Cl (centres undefined)	9000 (≈ 3500 µg/mL)		
Cc1ccc([N+](=O)[O-])cc1O	6530 (≈ 1000 µg/mL)	2.47	
Cc1cc(=O)nc(C(C)C)[nH]1		0.55	
Cc1cc(C)c(O)c(C)c1	8810 (≈ 1200 µg/mL)		
OCc1ccc(Cl)c(Cl)c1	9040 (≈ 1600 µg/mL)	2.74	
Nc1cccc2c(N)cccc12	2400 (≈ 380 µg/mL)		
CC(C)(C)c1cc(C(C)(C)C)c(O)c(C(C)(C)C)c1	133 (≈ 35 µg/mL)	6.06	
Cc1ccc(C(C)(C)C)cc1		5.17	
CC(C)=CC=C(C)C	290 (≈ 32 µg/mL)	3.5	
C=C(C)C(=O)OCCO	768000 (≈ 100000 µg/mL)		
C=CC1CC=CCC1 (centres undefined)		3.93	
N=C(Nc1ccccc1)Nc1ccccc1	4730 (≈ 1000 µg/mL)		
C=CC(=C)C		2.42	
Oc1ccc(Cc2ccccc2)cc1	397 (≈ 73.2 µg/mL)	3.47	
CC(C)(OOC(C)(C)c1ccccc1)c1ccccc1	1.7 (≈ 0.46 µg/mL)	5.5	
c1ccc(Nc2cccc3ccccc23)cc1	274 (≈ 60 µg/mL)		

SMILES	solubility (25 °C) [µM]	logP	further results
C=C1C2CCC(C2)C1(C)C (centres undefined)	33.8 (≈ 4.6 µg/mL)		
CC(C)(C)C(=O)O		1.48	
CCCCCC1C(=O)CCC1CC(=O)OC (centres undefined)			solubility: 1240 µM (≈ 280 µg/mL)
COc1ccc(N)c([N+](=O)[O-])c1	714 (≈ 120 µg/mL)	1.94	
O=C1c2ccccc2-c2cccc3cccc1c23		4.81	
ClC(Cl)C(Cl)C(Cl)Cl	1900 (≈ 410 µg/mL)	3.23	
O=P(OCCCl)(OCCCl)OCCCl		1.44	
COc1ccc(C(=O)c2ccccc2)c(O)c1		3.79	
ClC(c1ccccc1)(c1ccccc1)c1ccccc1		5.25	
O=[N+]([O-])c1cc(Cl)cc(Cl)c1O	81.7 (≈ 17 µg/mL)		
Cc1ccc(C)c(Cc2ccccc2)c1		5.65	
CCNc1cccc2ccccc12	642 (≈ 110 µg/mL)	3.45	
O=C(OOC(=O)c1ccccc1)c1ccccc1	37.6 (≈ 9.1 µg/mL)		
Cc1ccc(Cl)c(O)c1		2.9	
COC(=O)c1ccccc1C(=O)c1ccccc1	333 (≈ 80 µg/mL)	2.7	
Cc1ccc(O)cc1[N+](=O)[O-]		2.18	
N#Cc1ccccc1C#N	3080 (≈ 395 µg/mL)		
N#CSCSc1nc2ccccc2s1		3.3	
CN(C)Cc1ccccc1	88800 (≈ 12000 µg/mL)		
CC1CC(C)(C)CC(OOC(C)(C)C)(OOC(C)(C)C)C1 (centres undefined)		6.53	solubility: 1.98 µM (≈ 0.6 µg/mL)
O=C(O)c1ccc2ccccc2c1	273 (≈ 47 µg/mL)		
CC=C1CC2C=CC1C2 (centres undefined)	74 (≈ 8.9 µg/mL)	3.82	
O=P(OC(CCl)CCl)(OC(CCl)CCl)OC(CCl)CCl		3.65	
COc1c(N)cccc1[N+](=O)[O-]		1.78	
CCCCOCCOP(=O)(OCCOCCCC)OCCOCCCC		3.75	
CC(C)(C)c1ccc(O)c(C(C)(C)C)c1	170 (≈ 35 µg/mL)	5.19	

SMILES	solubility (25 °C) [µM]	logP	further results
c1ccc2sc(SSc3nc4ccccc4s3)nc2c1	30.1 (≈ 10 µg/mL)		
BrC(Br)Br		2.4	
CC(CCl)OP(=O)(OC(C)CCl)OC(C)CCl (centres undefined)	3660 (≈ 1200 µg/mL)	2.59	
CCCCCCCCN(CCCCCCCC)CCCCCCCC	0.141 (≈ 0.05 µg/mL)		
Cc1cc(Cc2cc(C)cc(C(C)(C)C)c2O)c(O)c(C(C)(C)C)c1	0.0587 (≈ 0.02 µg/mL)	6.25	
BrCC(CBr)(CBr)CBr		3.99	
C=C(C)C(=O)OCC(CC)(COC(=O)C(=C)C)COC(=O)C(=C)C		4.39	
CCOC(=O)C(O)(c1ccc(Cl)cc1)c1ccc(Cl)cc1		4.74	
CC(=O)CC(=O)Nc1ccc(-c2ccc(NC(=O)CC(C)=O)c(C)c2)cc1C		1.75	
C=Cc1ccccn1		1.54	
CCCCCCCCC#N	503 (≈ 70 µg/mL)		
CCCCC(CC)COC(=O)/C=C/C(=O)OCC(CC)CCCC (centres undefined)			solubility: 294 µM (≈ 100 µg/mL)
CC(C)(O)CCCC1=CCC(C=O)CC1 (centres undefined)			solubility: 29000 µM (≈ 6100 µg/mL)
Clc1ccccn1	176000 (≈ 20000 µg/mL)		
Oc1c(Cl)cc(Cl)c(Cl)c1Cl	99.2 (≈ 23 µg/mL)		
ClCC(Cl)CCl		2.27	
N#CCCNCCC#N		-1.34	
ClC1C(Br)C(Br)C(Br)C(Br)C1Br (centres undefined)		4.72	
COc1cccc([N+](=O)[O-])c1	3270 (≈ 500 µg/mL)		
O=C1CCCCCCCCCCCN1	1470 (≈ 290 µg/mL)	2.92	
CC(C)C(O)C(C)(C)CO (centres undefined)		1.24	
ClCCOC(c1ccccc1)c1ccccc1		4.38	
CCc1ccccc1[N+](=O)[O-]	1590 (≈ 240 µg/mL)	2.58	
C=CC(OC(C)=O)OC(C)=O	56900 (≈ 9000 µg/mL)	0.78	
CCCC=C(C=O)CC	4640 (≈ 586 µg/mL)		
CCCCC(CC)CN1C(=O)C2C(C1=O)C1(C(C)C)C=CC2(C)CC1 (centres undefined)		5.96	

SMILES	solubility (25 °C) [µM]	logP	further results
CC(C)[N+](=O)[O-]		0.93	
CNC(=O)Oc1ccccc1C(C)C	2070 (≈ 400 µg/mL)		
C=CCOP(=O)(OCC=C)OCC=C		1.76	
ClCC(Cl)(Cl)CCl	2640 (≈ 480 µg/mL)	2.72	
C=C(C)CCl	15500 (≈ 1400 µg/mL)		
O=[N+]([O-])c1ccc(Cl)cc1C(F)(F)F	443 (≈ 100 µg/mL)	3.2	
CCCCOC(=O)CC(CC(=O)OCCCC)(OC(C)=O)C(=O)OCCCC			solubility: 12.4 µM (≈ 5 µg/mL)
OCC(CO)(CBr)CBr	145000 (≈ 38000 µg/mL)		
ClCC(Br)CBr (centres undefined)		2.96	
Cc1ccc(O)c([N+](=O)[O-])c1	4130 (≈ 633 µg/mL)		
Nc1ccc(Cl)cc1Cl	3830 (≈ 620 µg/mL)		
O=CC(Cl)(Cl)Cl	204000 (≈ 30000 µg/mL)		
Nc1ccc2c(c1)C(=O)c1ccccc1C2=O		3.31	
OC(c1ccccc1)c1ccc(Cl)cc1 (centres undefined)	325 (≈ 71 µg/mL)	3.61	
Cc1ccsc1	4070 (≈ 400 µg/mL)		
CC(C)COc1ccc2ccccc2c1			solubility: 6.14 µM (≈ 1.23 µg/mL)
O=[N+]([O-])c1c(Cl)cc(Cl)cc1Cl	27.6 (≈ 6.25 µg/mL)		
CC(C)CN1CCOCC1	195000 (≈ 28000 µg/mL)	1.17	
Oc1cccc(Cl)c1Cl	22100 (≈ 3600 µg/mL)		
CC(C)=CCC/C(C)=C/CO	1490 (≈ 230 µg/mL)		
OCc1c(Cl)cccc1Cl	7910 (≈ 1400 µg/mL)		
CCN(CC)c1ccc2c(-c3ccccc3C(=O)O)c3ccc(N(CC)CC)cc3[o+]c2c1.[Cl-]		1.95	
CC(=O)N(C)c1ccccc1	112000 (≈ 16700 µg/mL)		
C=CC(=C)CCC=C(C)C	41.1 (≈ 5.6 µg/mL)	4.17	
CCCCOCCOCCOC(C)=O	220000 (≈ 44900 µg/mL)		
COc1ccccc1OCC(O)COC(N)=O (centres undefined)		0.61	

SMILES	solubility (25 °C) [µM]	logP	further results
CNc1cccc(C)c1	8910 (≈ 1080 µg/mL)	2.19	
O=C1c2ccccc2C(=O)c2c1ccc1ccccc21		4.4	
Oc1cc(Cl)ccc1Oc1ccc(Cl)cc1Cl		4.76	
Oc1c(Cl)cccc1Cl	11700 (≈ 1900 µg/mL)		
CCCCCC(=O)CCCCC	294 (≈ 50 µg/mL)		
Nc1cccc2c1C(=O)c1ccccc1C2=O		3.74	
Oc1c(Cl)cc(Cl)c2ccccc12		4.23	
COc1cccc2ccccc12	63.2 (≈ 10 µg/mL)	3.45	
COC(=O)c1cccc(C(=O)OC)c1			solubility: 1490 µM (≈ 290 µg/mL)
S=C(SSSSC(=S)N1CCCCC1)N1CCCCC1		2.8	
Oc1cc(Cl)ccc1Cl	12300 (≈ 2000 µg/mL)		
O=C(O)c1ccccc1-c1ccccc1C(=O)O	5200 (≈ 1260 µg/mL)		
Nc1c(Cl)cc(Cl)cc1Cl	204 (≈ 40 µg/mL)		
OCC(O)c1ccccc1Cl (centres undefined)		1.17	
C=C(C)CC(C)(C)C		4.55	
CCc1cccc(CC)c1	179 (≈ 24 µg/mL)		
O=C1CCCCC1C1=CCCCC1 (centres undefined)		3.17	
Nc1cccc2cccc(N)c12	5370 (≈ 850 µg/mL)		
N#CCc1ccccc1	854 (≈ 100 µg/mL)		
Nc1ccc(Cc2ccc(N)c(Cl)c2)cc1Cl		3.91	
ClC1CCCCC1	4220 (≈ 500 µg/mL)		
CCC(C)c1cccc(C(C)CC)c1O (centres undefined)	8.72 (≈ 1.8 µg/mL)		
CCOP(=S)(Oc1ccc([N+](=O)[O-])cc1)c1ccccc1 (centres undefined)		4.78	
COC(C)CCOC(C)=O (centres undefined)			solubility (20 °C): 31500 µM (≈ 4600 µg/mL)
CC(C)CCOCCC(C)C		4.25	
